In ChEMBL document CHEMBL5150071, “BAY-7081: A Potent, Selective, and Orally Bioavailable Cyanopyridone-Based PDE9A Inhibitor” (J Med Chem, 2022):
≈ marks a conversion by molar mass, not a printed value. Calls of active or inactive are those of the source. No cut-off for these calls is given here.

Key:
Homo sapiens [1] = species: Homo sapiens; assay: Selectivity index, ratio of IC50 for full length human PDE11A to IC50 for full length human PDE9A
[2] = Drug metabolism in rat hepatocytes assessed as glucuronidation of cyclic lactam at 10 uM incubated for 4 hrs by LC-MS/MS analysis; type: ADME, cell-based, Hepatocyte
[3] = Blood clearance in po or iv dosed Wistar rat measured over 24 hrs by LC-MS/MS analysis; type: ADME, organism-based; details: in vivo
Homo sapiens [4] = species: Homo sapiens; assay: Selectivity index, ratio of IC50 for full length human PDE4B to IC50 for full length human PDE9A
Homo sapiens [5] = species: Homo sapiens; assay: Selectivity index, ratio of IC50 for full length human PDE10A to IC50 for full length human PDE9A
Homo sapiens [6] = species: Homo sapiens; assay: Selectivity index, ratio of IC50 for full length human PDE7B to IC50 for full length human PDE9A
Homo sapiens [7] = species: Homo sapiens; assay: Selectivity index, ratio of IC50 for full length human PDE3B to IC50 for full length human PDE9A
[8] = Drug metabolism in cryopreserved human hepatocytes assessed as glucuronidation of cyclic lactam at 10 uM incubated for 4 hrs by LC-MS/MS analysis; type: ADME, cell-based, Hepatocyte
Homo sapiens [9] = species: Homo sapiens; assay: Selectivity index, ratio of IC50 for human platelet PDE5A to IC50 for full length human PDE9A
Homo sapiens [10] = species: Homo sapiens; assay: Selectivity index, ratio of IC50 for full length human PDE2A to IC50 for full length human PDE9A
Homo sapiens [11] = species: Homo sapiens; assay: Selectivity index, ratio of IC50 for full length human PDE8A to IC50 for full length human PDE9A
[12] = Selectivity index, ratio of IC50 for bovine brain PDE1 to IC50 for full length human PDE9A
[13] = molecular target: High affinity cGMP-specific 3',5'-cyclic phosphodiesterase 9A (Homo sapiens, UniProt O76083); assay: Inhibition of full length human PDE9A expressed in Sf9 insect cells using [3H]-cGMP as substrate incubated for 60 mins by microbeta scintillation counter analysis
[14] = Solubility of compound in PBS at pH 6.5 at 50 mg/ml incubated for 24 hrs by LC/MS/MS or HPLC analysis; type: physicochemical; details: buffer, pH 6.5, 24 h
[15] = Oral bioavailability in dog at 1 mg/kg measured over 24 hrs by LC-MS/MS analysis; type: ADME, organism-based, Canis lupus familiaris; details: in vivo
[16] = Blood clearance in Wistar rat at 1 mg/kg, po or 0.3 mg/kg, iv measured over 24 hrs by LC-MS/MS analysis; type: ADME, organism-based; details: in vivo
[17] = Protein binding in monkey plasma assessed as fraction unbound incubated for 6 hrs by LC-MS/MS analysis; type: ADME, cell-free, Macaca mulatta; details: rhesus monkey
[18] = Toxicity in rat assessed as increase in blood pressure at 5 to 40 mg/kg, po administered once daily via gavage and measured every 5 mins by telemetry system based analysis; type: organism-based; details: in vivo, dose 5-40 mg/kg
[19] = Blood clearance in dog at 1 mg/kg, po or 0.3 mg/kg, iv measured over 24 hrs by LC-MS/MS analysis; type: ADME, organism-based, Canis lupus familiaris; details: in vivo
[20] = Protein binding in human plasma assessed as fraction unbound incubated for 6 hrs by LC-MS/MS analysis; type: ADME, cell-free
[21] = Stability in human hepatocytes assessed as drug degradation incubated for 4 hrs; type: ADME, cell-based, Hepatocyte
[22] = Volume of distribution at steady state in dog at 1 mg/kg, po or 0.3 mg/kg, iv measured over 24 hrs by LC-MS/MS analysis; type: ADME, organism-based, Canis lupus familiaris; details: in vivo
[23] = MRT in dog at 0.3 mg/kg, iv measured over 24 hrs by LC-MS/MS analysis; type: ADME, organism-based, Canis lupus familiaris; details: in vivo
Cytochrome P450 2C9 = Cytochrome P450 2C9 (Homo sapiens, UniProt P11712); assay: Inhibition of CYP2C9 in human liver microsomes using diclofenac as substrate by LC-MS/MS analysis; type: ADME, Microsome
[24] = MRT in Wistar rat at 0.3 mg/kg, iv measured over 24 hrs by LC-MS/MS analysis; type: ADME, organism-based; details: in vivo
[25] = molecular target: T1, High affinity cGMP-specific 3',5'-cyclic phosphodiesterase 9A (Mus musculus, UniProt O70628); assay: Inhibition of mouse PDE9A expressed in recombinant CHO cells coexpressing soluble guanylate cyclase incubated for 6 mins by [3H]-cGMP scintillation proximity assay; type: cell-based
T1 sequence (O70628 whole entry): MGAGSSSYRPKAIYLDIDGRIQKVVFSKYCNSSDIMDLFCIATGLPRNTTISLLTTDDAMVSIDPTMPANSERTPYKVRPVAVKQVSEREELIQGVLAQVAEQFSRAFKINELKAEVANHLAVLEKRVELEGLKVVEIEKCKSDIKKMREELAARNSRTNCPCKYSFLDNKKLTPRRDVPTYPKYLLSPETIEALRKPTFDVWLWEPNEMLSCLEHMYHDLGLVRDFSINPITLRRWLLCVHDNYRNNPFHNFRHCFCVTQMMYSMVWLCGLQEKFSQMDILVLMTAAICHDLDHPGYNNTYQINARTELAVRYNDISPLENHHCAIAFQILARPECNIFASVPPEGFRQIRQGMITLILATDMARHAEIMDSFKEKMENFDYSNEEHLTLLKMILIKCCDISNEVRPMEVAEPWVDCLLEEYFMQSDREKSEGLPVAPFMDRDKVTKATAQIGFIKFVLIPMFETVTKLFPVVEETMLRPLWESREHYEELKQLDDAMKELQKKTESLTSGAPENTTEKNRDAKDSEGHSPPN

[26] = Solubility of compound in PBS at pH 7 incubated for 24 hrs by UV based HPLC analysis; type: physicochemical; details: buffer, pH 7, 24 h
[27] = Toxicity in rat assessed as increase in heart rate at 5 to 40 mg/kg, po administered once daily via gavage and measured every 5 mins by telemetry system based analysis; type: organism-based; details: in vivo, dose 5-40 mg/kg
[28] = Volume of distribution at steady state in Wistar rat at 1 mg/kg, po or 0.3 mg/kg, iv measured over 24 hrs by LC-MS/MS analysis; type: ADME, organism-based; details: in vivo
[29] = Protein binding in rat plasma assessed as fraction unbound incubated for 6 hrs by LC-MS/MS analysis; type: ADME, cell-free
[30] = Protein binding in dog plasma assessed as fraction unbound incubated for 6 hrs by LC-MS/MS analysis; type: ADME, cell-free, Canis lupus familiaris
[31] = Induction of CYP3A4 mRNA expression in human hepatocytes at 9.2 uM incubated for 48 hrs with media replacement for […] by qPCR analysis; type: ADME, cell-based, Hepatocyte
[32] = Oral bioavailability in Wistar rat at 1 mg/kg measured over 24 hrs by LC-MS/MS analysis; type: ADME, organism-based; details: in vivo
[33] = Protein binding in mouse plasma assessed as fraction unbound incubated for 6 hrs by LC-MS/MS analysis; type: ADME, cell-free
[34] = molecular target: T2, High affinity cGMP-specific 3',5'-cyclic phosphodiesterase 9A (Mus musculus) (UniProt O70628); assay: Inhibition of mouse PDE9A using [3H]-cGMP as substrate at 34 nM incubated for 60 mins by microbeta scintillation counter analysis relative to control
T2 sequence (whole entry): T1 sequence (O70628 whole entry)

[35] = molecular target: T3, High affinity cGMP-specific 3',5'-cyclic phosphodiesterase 9A (Rattus norvegicus) (UniProt Q8QZV1); assay: Inhibition of rat PDE9A using [3H]-cGMP as substrate at 42 nM incubated for 60 mins by microbeta scintillation counter analysis relative to control
T3 sequence (whole entry): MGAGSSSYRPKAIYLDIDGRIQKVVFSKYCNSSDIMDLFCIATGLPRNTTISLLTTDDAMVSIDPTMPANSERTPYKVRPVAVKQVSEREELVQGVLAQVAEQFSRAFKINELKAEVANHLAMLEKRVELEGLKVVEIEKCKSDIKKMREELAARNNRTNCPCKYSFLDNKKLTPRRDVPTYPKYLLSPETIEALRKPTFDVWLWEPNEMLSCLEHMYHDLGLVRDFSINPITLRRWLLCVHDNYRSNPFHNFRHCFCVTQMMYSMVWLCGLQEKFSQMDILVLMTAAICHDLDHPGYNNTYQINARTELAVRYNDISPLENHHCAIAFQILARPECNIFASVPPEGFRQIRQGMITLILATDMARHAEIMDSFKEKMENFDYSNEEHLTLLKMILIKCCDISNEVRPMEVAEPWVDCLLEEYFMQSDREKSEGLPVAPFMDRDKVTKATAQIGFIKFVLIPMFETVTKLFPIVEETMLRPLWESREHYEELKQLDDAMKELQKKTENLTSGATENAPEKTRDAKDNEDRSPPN

Rattus norvegicus [36] = assay: In vivo inhibition of PDE9A in Sprague-Dawley rat assessed as increase in cGMP level in urine at 40 mg/kg, po measured after 85 mins by ELISA; type: functional, organism-based
[37] = Selectivity index, ratio of IC50 for bovine PDE6 to IC50 for full length human PDE9A
Mus musculus [38] = assay: In vivo inhibition of PDE9A in mouse myocardial hypertrophy model with transverse aortic constriction assessed as improvement of heart function at 10 mg/kg administered twice daily for 5 weeks; type: functional, organism-based
Mus musculus [39] = assay: In vivo inhibition of PDE9A in mouse myocardial hypertrophy model with transverse aortic constriction assessed as reduction of hypertrophy of the left atrium at 10 mg/kg administered twice daily for 5 weeks; type: functional, organism-based
Mus musculus [40] = assay: In vivo inhibition of PDE9A in mouse myocardial hypertrophy model with transverse aortic constriction assessed as reduction in minimal diastolic left ventricular pressure at 10 mg/kg administered twice daily for 5 weeks; type: functional, organism-based
[41] = Toxicity in rat assessed as increase in blood pressure at 10 to 50 mg/kg, po administered twice daily via gavage and measured every 5 mins by telemetry system based analysis; type: organism-based; details: in vivo, dose 10-50 mg/kg
[42] = Toxicity in rat assessed as increase in heart rate at 10 to 50 mg/kg, po administered twice daily via gavage and measured every 5 mins by telemetry system based analysis; type: organism-based; details: in vivo, dose 10-50 mg/kg
Rattus norvegicus [43] = assay: In vivo inhibition of PDE9A in Sprague-Dawley rat assessed as increase in cGMP level in urine at 10 to 50 mg/kg, po measured after 85 mins by ELISA; type: functional, organism-based; details: dose 10-50 mg/kg

High affinity cGMP-specific 3',5'-cyclic phosphodiesterase 9A (Homo sapiens, UniProt O76083), sequence (O76083 whole entry): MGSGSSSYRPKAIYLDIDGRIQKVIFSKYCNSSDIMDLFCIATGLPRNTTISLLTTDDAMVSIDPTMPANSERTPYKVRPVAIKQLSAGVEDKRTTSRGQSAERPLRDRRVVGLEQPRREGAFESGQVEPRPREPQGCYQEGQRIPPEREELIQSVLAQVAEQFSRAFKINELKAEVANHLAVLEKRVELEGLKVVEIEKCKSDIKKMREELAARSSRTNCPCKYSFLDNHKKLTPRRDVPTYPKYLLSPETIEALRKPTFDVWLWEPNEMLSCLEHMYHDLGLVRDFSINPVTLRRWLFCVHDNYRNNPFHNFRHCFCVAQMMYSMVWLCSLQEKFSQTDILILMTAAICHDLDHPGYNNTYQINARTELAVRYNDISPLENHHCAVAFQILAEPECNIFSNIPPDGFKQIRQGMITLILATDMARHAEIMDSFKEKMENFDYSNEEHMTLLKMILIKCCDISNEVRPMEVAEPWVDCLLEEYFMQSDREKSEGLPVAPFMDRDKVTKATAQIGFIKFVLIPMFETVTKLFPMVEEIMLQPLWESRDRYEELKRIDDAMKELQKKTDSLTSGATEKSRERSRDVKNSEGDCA
Cytochrome P450 2C9, sequence (P11712 whole entry): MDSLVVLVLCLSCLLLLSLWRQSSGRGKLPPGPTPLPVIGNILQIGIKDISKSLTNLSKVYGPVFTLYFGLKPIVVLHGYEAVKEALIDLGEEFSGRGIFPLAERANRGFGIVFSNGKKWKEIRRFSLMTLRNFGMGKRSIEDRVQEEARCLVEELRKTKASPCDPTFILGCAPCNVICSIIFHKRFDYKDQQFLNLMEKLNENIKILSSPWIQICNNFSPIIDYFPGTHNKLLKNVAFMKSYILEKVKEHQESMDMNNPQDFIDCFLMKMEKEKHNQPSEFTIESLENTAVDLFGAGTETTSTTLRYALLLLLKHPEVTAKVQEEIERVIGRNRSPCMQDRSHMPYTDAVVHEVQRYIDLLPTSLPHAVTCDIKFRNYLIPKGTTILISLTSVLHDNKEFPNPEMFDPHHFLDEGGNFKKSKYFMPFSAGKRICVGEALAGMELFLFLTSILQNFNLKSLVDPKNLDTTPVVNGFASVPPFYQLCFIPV

Row | SMILES | Ratio IC50 (Homo sapiens [1]) | Ratio IC50 (Homo sapiens [4]) | Ratio IC50 (Homo sapiens [5]) | Ratio IC50 (Homo sapiens [6]) | Ratio IC50 (Homo sapiens [7]) | Ratio IC50 (Homo sapiens [9]) | Ratio IC50 (Homo sapiens [10]) | Ratio IC50 (Homo sapiens [11]) | Ratio IC50 [12] | IC50 [13] [nM] | F [15] [%] | CL [16] [mL/min/kg] | CL [19] [mL/min/kg] | Vdss [22] [L/kg] | MRT [23] [h] | MRT [24] [h] | Vdss [28] [L/kg] | also measured
1 | CCCC1CNCc2c1[nH]c(=O)c(C#N)c2-c1ccc(C)cc1.Cl (configuration not stated) | > 100 | > 100 | > 100 | > 100 | > 100 | > 100 | > 100 | > 100 | – | – | – | – | – | – | – | – | – | Drug metabolism [2]: Metabolite_Detected; CL [3]: 60 mL/min/kg; Drug metabolism [8]: Metabolite_Detected
2 | Cc1ccc(-c2c3c([nH]c(=O)c2C#N)C(C)CCC3)cc1 (racemic) | – | – | – | – | – | – | – | – | 3 | 310 | – | – | – | – | – | – | – | solubility [14]: 9 µg/mL (≈ 32.3 µM)
3 | CCCC1CNCc2c1[nH]c(=O)c(C#N)c2N1CCC2(CC1)CC2.Cl (stereo in doubt; form 2) | – | – | – | – | – | – | – | – | – | 15 | 80 | 40 | 15 | 3 | 4 | 1.9 | 4.5 | Fu [17]: 42%; Activity [18]: Non-Toxic; Fu [20]: 34%; Stability [21]: Stable; IC50 (Cytochrome P450 2C9): 16000 nM; EC50 [25]: 1000 nM; solubility [26]: > 500 µg/mL; Activity [27]: Non-Toxic; Fu [29]: 20%; Fu [30]: 43%; Activity [31]: Active; F ([32]; po, 1 mg/kg, 24 h): 61%; Fu [33]: 41%
4 | CCCC1CNCc2c1[nH]c(=O)c(C#N)c2N1CCC2(CC1)CC2 (stereo in doubt; form 2) | 430 | 238 | > 650 | > 650 | > 650 | 143 | > 650 | 97 | 49 | – | – | – | – | – | – | – | – | inhibition [34]: 50%; inhibition [35]: 50%; inhibition (Rattus norvegicus [36]): Active; Ratio IC50 [37]: 101
5 | C[C@@H]1CN(Cc2ncccn2)C[C@H]1c1nc2c(cnn2C2CCOCC2)c(=O)[nH]1 [EDELINONTRINE] | – | – | – | – | – | – | – | – | – | – | 38 | 50 | 8.3 | 1.5 | 3.1 | 0.8 | 2.2 | inhibition (Mus musculus [38]): Active; inhibition (Mus musculus [39]): Active; inhibition (Mus musculus [40]): Active; Activity [41]: Non-Toxic; Activity [42]: Non-Toxic; inhibition (Rattus norvegicus [43]): Active; bioavailability ([32]; Wistar): 41%
